“Also recorded” adds a separate entry of the source.
How the values were obtained:
[1] = biological target: T1, COX-1 isolated from bovine vesicles (Bos taurus, UniProt O62664); assay: Isoform selectivity: CoxFluor incubated with COX-1; type: biochemical; conditions: even in the presence of 10-fold excess enzyme activity
T1 construct: COX-1 isolated from bovine vesicles; from tissue; host or cells: bovine vesicles
T1 sequence (O62664 25-600): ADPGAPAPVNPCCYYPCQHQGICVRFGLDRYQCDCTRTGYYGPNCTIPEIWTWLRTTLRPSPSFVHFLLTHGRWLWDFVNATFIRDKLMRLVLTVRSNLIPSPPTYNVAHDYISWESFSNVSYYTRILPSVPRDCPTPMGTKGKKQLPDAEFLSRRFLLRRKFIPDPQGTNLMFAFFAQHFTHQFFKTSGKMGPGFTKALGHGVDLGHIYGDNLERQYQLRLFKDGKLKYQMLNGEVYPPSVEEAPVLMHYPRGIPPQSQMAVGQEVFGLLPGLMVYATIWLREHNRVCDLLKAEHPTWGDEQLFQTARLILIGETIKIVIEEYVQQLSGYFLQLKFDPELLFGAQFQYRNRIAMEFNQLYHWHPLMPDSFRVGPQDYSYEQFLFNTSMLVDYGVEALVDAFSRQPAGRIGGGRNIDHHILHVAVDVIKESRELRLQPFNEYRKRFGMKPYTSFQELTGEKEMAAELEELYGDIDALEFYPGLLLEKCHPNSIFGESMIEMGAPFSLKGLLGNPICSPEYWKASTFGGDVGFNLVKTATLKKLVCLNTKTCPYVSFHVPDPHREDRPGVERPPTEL
Description: Enzyme Selectivity. Enzyme activity was defined as the amount substrate (μmol) consumed during one minute by one milligram of enzyme in 100 mM Tris-HCl at pH 8.0 under saturating conditions. Enzyme concentrations were measured using the BCA assay (Thermo Fisher Scientific) according to the published protocol with bovine serum albumin for the standard curve. […] The oxygen electrode was calibrated using 1% sodium sulfite for 0% oxygen and atmosphere equilibrated 100 mM Tris-HCl at pH 8.0 for 100% oxygen. The reaction was monitored at 37° C. in a glass chamber with a total reaction volume of 1 mL. […] When measured, all enzyme activities were confirmed to be under saturating conditions and within the first 20% of the reaction. The selectivity of CoxFluor (10 μM) was monitored after incubation with either 0.101 U COX-2 or 1.01 U of the other enzymes, unless noted otherwise above, in 100 mM Tris-HCl buffer at pH 8.0 using the plate reader with excitation at 540 nm and emission at 590 nm. Total reaction volume was maintained at 95 μL with a final DMSO concentration of 1.26% (v/v).

[2] = Photophysical characterization; type: physicochemical
Description: Photophysical Characterization. Extinction coefficients and fluorescence quantum yields were acquired (n=3) and reported as the average with a relative standard deviation less than 15%. Extinction coefficients were acquired by titrating compound in 100 mM Tris-HCl (pH 8.0) within the linear range. Fluorescence quantum yields were obtained using the modified method for relative fluorescence quantum yield. Dye was titrated into the solution and the absorbance and emission were monitored (excitation at 540 nm). The absorbance was maintained below 0.1 to limit secondary absorbance events. Total emission spectra were integrated, and the relative quantum yield was calculated relative to Rhodamine B (ϕ=0.70, ethanol). The refractive index of 100 mM Tris-HCl (pH 8.0) was measured to be 1.33514.

HEK 293T cells = assay: Cell viability (trypan blue exclusion and MTT) in HEK 293T cells; type: cell-based; conditions: 6 h incubation
Description: Trypan Blue Exclusion Cytotoxicity Assay. 6-well plates were seeded with 300,000 cells per well (2 mL of 150,000 cells/mL) and incubated at 37° C. with 5% CO2 for 48 to 72 h (˜60-80% confluent). Media was removed and replaced with either 5, 10, or 25 μM CoxFluor in fresh serum-free DMEM media (1.25% DMSO v/v final concentration). […] The trypsin was quenched with the addition of 1.8 mL DMEM media containing 10% FBS and the cells were mixed thoroughly before diluting 1:1 with trypan blue (0.4% in PBS w/v). Percent viability was measured using a Countess® II FL Automated Cell Counter (Thermo Fisher Scientific), where the parameters were optimized to identify live and dead cells. Viability was calculated by the relative to the vehicle control.
MTT Cytotoxicity Assay. […] The media was removed at various time points (3 or 6 h) and replaced with 200 μL 20:1 mixture of FBS-free DMEM and (3-(4,5-dimethylthiazol-2-yl)-2,5-diphenyl-tetrazolium bromide (MTT, 5 mg/mL stock in PBS). The cells were incubated for 4 h under the same conditions and then the medium was removed and replaced with DMSO (200 μL/well). The absorbance of each well was recorded after a 1:5 dilution in DMSO at 555 nm on a microplate reader. Viability was calculated by the absorbance relative to the vehicle control.

CCCCC/C=C\C/C=C\C/C=C\C/C=C\CCCC(=O)N1c2ccc(O)cc2Oc2cc(O)ccc21 [CoxFluor]
fluorescent enhancement with COX-1 [1]: not observed; also recorded: No fluorescent enhancement was observed | extinction coefficient ε at 572 nm ([2]; 100 mM Tris-HCl pH 8.0): 820 M⁻¹ cm⁻¹ | fluorescence quantum yield ΦF ([2]; 100 mM Tris-HCl pH 8.0, relative to Rhodamine B): 0.29 | cell viability (HEK 293T cells): suitable viability
